Data reported in ChEMBL document CHEMBL4334537 (ACS Med Chem Lett, 2020).

What was measured:
[1] = Chemical stability of fluorescent labelled compound in PBS buffer at pH 7.4 and 22 degree C measured after 48 hrs by RP-HPLC analysis; type: physicochemical; details: pH 7.4, 48 h
[2] = Chemical stability of fluorescent labelled compound in PBS buffer assessed as compound decomposition at pH 7.4 and 22 degree C after > 24 hrs by RP-HPLC analysis; type: physicochemical; details: pH 7.4, 24 h

Row | Compound | Stability [1] | Stability [2]
1 | CC[C@H](C)[C@H](NC(=O)[C@H](Cc1ccc(O)cc1)NC(=O)[C@@H]1CCCN1C(=O)[C@H](CCCNC(=N)N)NC(=O)[C@@H](N)CCCNC(=N)NC(=O)NCCCCNC(=O)CCCCCN1/C(=C/C=C/C=C/C2=[N+](CCCCS(=O)(=O)[O-])c3ccccc3C2(C)C)C(C)(C)c2cc(S(=O)(=O)O)ccc21)C(=O)N[C@@H](CC(C)C)C(=O)O.O=C(O)C(F)(F)F.O=C(O)C(F)(F)F | Stable | –
2 | CC[C@H](C)[C@H](NC(=O)[C@H](Cc1ccc(O)cc1)NC(=O)[C@@H]1CCCN1C(=O)[C@H](CCCNC(=N)N)NC(=O)[C@@H](N)CCCNC(=N)NC(=O)NCCOCCOCC[n+]1c(C)cc(/C=C/C=C/c2ccc(N(C)C)cc2)cc1C)C(=O)N[C@@H](CC(C)C)C(=O)O.O=C(O)C(F)(F)F.O=C(O)C(F)(F)F.O=C(O)C(F)(F)F.O=C([O-])C(F)(F)F | – | Unstable
3 | CC[C@H](C)[C@H](NC(=O)[C@H](Cc1ccc(O)cc1)NC(=O)[C@@H]1CCCN1C(=O)[C@H](CCCNC(=N)NC(=O)NCCOCCOCCNC(=O)CCCCCN1/C(=C/C=C/C=C/C2=[N+](CCCCS(=O)(=O)[O-])c3ccccc3C2(C)C)C(C)(C)c2cc(S(=O)(=O)O)ccc21)NC(=O)[C@@H](N)CCCNC(=N)N)C(=O)N[C@@H](CC(C)C)C(=O)O.O=C(O)C(F)(F)F.O=C(O)C(F)(F)F | Stable | –
4 | CC[C@H](C)[C@H](NC(=O)[C@H](Cc1ccc(O)cc1)NC(=O)[C@@H]1CCCN1C(=O)[C@H](CCCNC(=N)N)NC(=O)[C@@H](N)CCCNC(=N)NC(=O)NCCOCCOCCNC(=O)CCCCCN1/C(=C/C=C/C=C/C2=[N+](CCCCS(=O)(=O)[O-])c3ccccc3C2(C)C)C(C)(C)c2ccccc21)C(=O)N[C@@H](CC(C)C)C(=O)O.O=C(O)C(F)(F)F.O=C(O)C(F)(F)F.O=C(O)C(F)(F)F | Stable | –
